# Source: PubChem BioAssay AID1963978 (Molecular Pharmacology Branch, DTP, NCI, 2024)
# Test system: 616215-338-R-J1-PDC spheroids with HUVEC/MSC, viability
# Assay: Anticancer human tumor 616215-338-R-J1-PDC patient-derived colon adenocarcinoma cell line growth inhibition [PI3K]
# Details: for IC50: curve of first compound; for viability, T/C: stronger effect = lower value
# Method in brief: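 Agents were dosed from a top concentration near clinical Cmax (otherwise 10 microM) in half-log decrements, alone or combined with PI3K inhibitors. The spheroids contain tumor cells plus endothelial (HUVEC) and MSC stroma; viability is measured.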
# [1] = second compound 0.0316 µM, first compound 0.0316 µM
# [2] = second compound 0.0316 µM, first compound 0.1 µM
# [3] = second compound 0.0316 µM, first compound 0.316 µM
# [4] = second compound 0.0316 µM, first compound 1 µM
# [5] = second compound 0.0316 µM, first compound 3.16 µM
# [6] = second compound 0.0316 µM, first compound 10 µM
# [7] = second compound 0.1 µM, first compound 0.0316 µM
# [8] = second compound 0.1 µM, first compound 0.1 µM
# [9] = second compound 0.1 µM, first compound 0.316 µM
# [10] = second compound 0.1 µM, first compound 1 µM
# [11] = second compound 0.1 µM, first compound 3.16 µM
# [12] = second compound 0.1 µM, first compound 10 µM
# [13] = second compound 0.316 µM, first compound 0.0316 µM
# [14] = second compound 0.316 µM, first compound 0.1 µM
# [15] = second compound 0.316 µM, first compound 0.316 µM
# [16] = second compound 0.316 µM, first compound 1 µM
# [17] = second compound 0.316 µM, first compound 3.16 µM
# [18] = second compound 0.316 µM, first compound 10 µM
# [19] = second compound 1 µM, first compound 0.0316 µM
# [20] = second compound 1 µM, first compound 0.1 µM
# [21] = second compound 1 µM, first compound 0.316 µM
# [22] = second compound 1 µM, first compound 1 µM
# [23] = second compound 1 µM, first compound 3.16 µM
# [24] = second compound 1 µM, first compound 10 µM
# [25] = second compound 3.16 µM, first compound 0.0316 µM
# [26] = second compound 3.16 µM, first compound 0.1 µM
# [27] = second compound 3.16 µM, first compound 0.316 µM
# [28] = second compound 3.16 µM, first compound 1 µM
# [29] = second compound 3.16 µM, first compound 3.16 µM
# [30] = second compound 3.16 µM, first compound 10 µM
# [31] = second compound 10 µM, first compound 0.0316 µM
# [32] = second compound 10 µM, first compound 0.1 µM
# [33] = second compound 10 µM, first compound 0.316 µM
# [34] = second compound 10 µM, first compound 1 µM
# [35] = second compound 10 µM, first compound 3.16 µM
# [36] = second compound 10 µM, first compound 10 µM
# 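Note: spheroids exposed to agents for seven days before the viability read.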
compound,measurement,setting,value
CC(Cn1ccc(-c2ccc(C#N)c(Cl)c2)n1)NC(=O)c1cc(C(C)O)[nH]n1 (stereo unspecified) + CC(Nc1ncnc2nc[nH]c12)c1cc2cccc(Cl)c2c(=O)n1-c1ccccc1,IC50,second compound 0.0316 µM,> 10000 nM
same,IC50,second compound 0.1 µM,> 10000 nM
same,IC50,second compound 0.316 µM,> 10000 nM
same,IC50,second compound 1 µM,> 10000 nM
same,IC50,second compound 3.16 µM,> 10000 nM
same,IC50,second compound 10 µM,> 10000 nM
same,"viability, T/C",[1],92%
same,"viability, T/C",[2],99.5%
same,"viability, T/C",[3],103%
same,"viability, T/C",[4],96.1%
same,"viability, T/C",[5],116%
same,"viability, T/C",[6],99.5%
same,"viability, T/C",[7],93.7%
same,"viability, T/C",[8],94.6%
same,"viability, T/C",[9],102%
same,"viability, T/C",[10],92.9%
same,"viability, T/C",[11],95.5%
same,"viability, T/C",[12],104%
same,"viability, T/C",[13],93.1%
same,"viability, T/C",[14],102%
same,"viability, T/C",[15],89.1%
same,"viability, T/C",[16],101%
same,"viability, T/C",[17],102%
same,"viability, T/C",[18],93.4%
same,"viability, T/C",[19],96%
same,"viability, T/C",[20],88.3%
same,"viability, T/C",[21],110%
same,"viability, T/C",[22],93.7%
same,"viability, T/C",[23],110%
same,"viability, T/C",[24],95.9%
same,"viability, T/C",[25],109%
same,"viability, T/C",[26],97.1%
same,"viability, T/C",[27],107%
same,"viability, T/C",[28],104%
same,"viability, T/C",[29],94.8%
same,"viability, T/C",[30],92.8%
same,"viability, T/C",[31],99.4%
same,"viability, T/C",[32],106%
same,"viability, T/C",[33],101%
same,"viability, T/C",[34],97%
same,"viability, T/C",[35],118%
same,"viability, T/C",[36],95.5%
CC1(C)CCC(Nc2ncc(C(F)(F)F)c(-c3c[nH]c4c(P(C)(C)=O)c(C#N)ccc34)n2)CN1 (stereo unspecified) + CC(Nc1ncnc2nc[nH]c12)c1cc2cccc(Cl)c2c(=O)n1-c1ccccc1,IC50,second compound 0.0316 µM,31.6 nM
same,IC50,second compound 0.1 µM,31.6 nM
same,IC50,second compound 0.316 µM,31.6 nM
same,IC50,second compound 1 µM,< 31.6 nM
same,IC50,second compound 3.16 µM,1090 nM
same,IC50,second compound 10 µM,714 nM
same,"viability, T/C",[1],53.9%
same,"viability, T/C",[2],39%
same,"viability, T/C",[3],44.9%
same,"viability, T/C",[4],51.6%
same,"viability, T/C",[5],51.8%
same,"viability, T/C",[6],0.44%
same,"viability, T/C",[7],50.6%
same,"viability, T/C",[8],37%
same,"viability, T/C",[9],44.8%
same,"viability, T/C",[10],45.8%
same,"viability, T/C",[11],54%
same,"viability, T/C",[12],1.73%
same,"viability, T/C",[13],44%
same,"viability, T/C",[14],37.4%
same,"viability, T/C",[15],41.1%
same,"viability, T/C",[16],42.3%
same,"viability, T/C",[17],51.3%
same,"viability, T/C",[18],0.53%
same,"viability, T/C",[19],42.2%
same,"viability, T/C",[20],41.1%
same,"viability, T/C",[21],39.9%
same,"viability, T/C",[22],70.7%
same,"viability, T/C",[23],46.5%
same,"viability, T/C",[24],1.13%
same,"viability, T/C",[25],44.1%
same,"viability, T/C",[26],39.4%
same,"viability, T/C",[27],64.1%
same,"viability, T/C",[28],57.4%
same,"viability, T/C",[29],41.8%
same,"viability, T/C",[30],0.36%
same,"viability, T/C",[31],48%
same,"viability, T/C",[32],51.3%
same,"viability, T/C",[33],58.4%
same,"viability, T/C",[34],48.4%
same,"viability, T/C",[35],20.9%
same,"viability, T/C",[36],0.61%
Cn1nccc1Nc1nccc(-c2ccn(C(CO)c3ccc(Cl)c(F)c3)c(=O)c2)n1 (stereo unspecified) + CC(Nc1ncnc2nc[nH]c12)c1cc2cccc(Cl)c2c(=O)n1-c1ccccc1,IC50,second compound 0.0316 µM,5160 nM
same,IC50,second compound 0.1 µM,5570 nM
same,IC50,second compound 0.316 µM,2940 nM
same,IC50,second compound 1 µM,5740 nM
same,IC50,second compound 3.16 µM,2620 nM
same,IC50,second compound 10 µM,1530 nM
same,"viability, T/C",[1],95.6%
same,"viability, T/C",[2],89.2%
same,"viability, T/C",[3],89.7%
same,"viability, T/C",[4],68.1%
same,"viability, T/C",[5],57%
same,"viability, T/C",[6],42.7%
same,"viability, T/C",[7],106%
same,"viability, T/C",[8],102%
same,"viability, T/C",[9],84.3%
same,"viability, T/C",[10],77.3%
same,"viability, T/C",[11],65.4%
same,"viability, T/C",[12],36.5%
same,"viability, T/C",[13],101%
same,"viability, T/C",[14],102%
same,"viability, T/C",[15],80.6%
same,"viability, T/C",[16],67.1%
same,"viability, T/C",[17],50.8%
same,"viability, T/C",[18],29.9%
same,"viability, T/C",[19],109%
same,"viability, T/C",[20],98.6%
same,"viability, T/C",[21],71.8%
same,"viability, T/C",[22],72.9%
same,"viability, T/C",[23],61.2%
same,"viability, T/C",[24],40.6%
same,"viability, T/C",[25],99.1%
same,"viability, T/C",[26],105%
same,"viability, T/C",[27],93.4%
same,"viability, T/C",[28],71.3%
same,"viability, T/C",[29],47.1%
same,"viability, T/C",[30],28%
same,"viability, T/C",[31],111%
same,"viability, T/C",[32],99%
same,"viability, T/C",[33],72.6%
same,"viability, T/C",[34],57.8%
same,"viability, T/C",[35],39.7%
same,"viability, T/C",[36],12.7%
